Laboratory results as given in the supplement of paper PMC10307832.

Experiments:
Assay in all cases: relative viability (nuclei count vs DMSO), 5 days (fraction); higher = more cells survive
HCC-78 = tested on: HCC-78
Method in brief: (§1)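 A single step with final 0.05% Triton X-100, 1% formaldehyde and 1 ug/ml Hoechst fixed the cells and stained nuclei 5 days after treatment. Lung cancer cell lines in 1536-well plates had been treated by pin tool the day after seeding with one drug alone or a fixed anchor-drug dose plus five library-drug doses (not always all listed) in √10 steps, and nuclei were counted on 4× images. Relative viability is the ratio of nuclei in treated wells to nuclei in vehicle wells, taken as the median of duplicate plates.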

BEN = tested on: BEN
Method in brief: as §1

LK-2 = tested on: LK-2
Method in brief: as §1

PC-3 [JPC-3] = tested on: PC-3 [JPC-3]
Method in brief: as §1

NCI-H358 = tested on: NCI-H358
Method in brief: as §1

NCI-H596 = tested on: NCI-H596
Method in brief: as §1

NCI-H1944 = tested on: NCI-H1944
Method in brief: as §1

NCI-H650 = tested on: NCI-H650
Method in brief: as §1

LXF-289 = tested on: LXF-289
Method in brief: as §1

NCI-H838 = tested on: NCI-H838
Method in brief: as §1

NCI-H661 = tested on: NCI-H661
Method in brief: as §1

NCI-H1651 = tested on: NCI-H1651
Method in brief: as §1

NCI-H1975 = tested on: NCI-H1975
Method in brief: as §1

NCI-H1666 = tested on: NCI-H1666
Method in brief: as §1

NCI-H2087 = tested on: NCI-H2087
Method in brief: as §1

LU99A = tested on: LU99A
Method in brief: as §1

LC-2-ad = tested on: LC-2-ad
Method in brief: as §1

SK-MES-1 = tested on: SK-MES-1
Method in brief: as §1

NCI-H1355 = tested on: NCI-H1355
Method in brief: as §1

LCLC-97TM1 = tested on: LCLC-97TM1
Method in brief: as §1

Compound: CC(=O)O[C@@]12CO[C@@H]1C[C@H](O)[C@@]1(C)C(=O)[C@H](O)C3=C(C)[C@@H](OC(=O)[C@H](O)[C@@H](NC(=O)OC(C)(C)C)c4ccccc4)C[C@@](O)([C@@H](OC(=O)c4ccccc4)[C@H]21)C3(C)C [Docetaxel] + Cc1nc(NC(=O)N2CCC[C@H]2C(N)=O)sc1-c1ccnc(C(C)(C)C(F)(F)F)c1 [Alpelisib] (partner 2 µM)
- relative viability (HCC-78; first compound 0.0002 µM): 0.338
- relative viability (HCC-78; first compound 0.000632 µM): 0.279
- relative viability (HCC-78; first compound 0.002 µM): 0.255
- relative viability (HCC-78; first compound 0.006325 µM): 0.24
- relative viability (HCC-78; first compound 0.02 µM): 0.175
- relative viability (BEN; first compound 0.0002 µM): 0.875
- relative viability (BEN; first compound 0.000632 µM): 0.897
- relative viability (BEN; first compound 0.002 µM): 0.505
- relative viability (BEN; first compound 0.006325 µM): 0.261
- relative viability (BEN; first compound 0.02 µM): 0.19
- relative viability (LK-2; first compound 0.0002 µM): 1.03
- relative viability (LK-2; first compound 0.000632 µM): 0.685
- relative viability (LK-2; first compound 0.002 µM): 0.262
- relative viability (LK-2; first compound 0.006325 µM): 0.244
- relative viability (LK-2; first compound 0.02 µM): 0.231
- relative viability (PC-3 [JPC-3]; first compound 0.0002 µM): 1.02
- relative viability (PC-3 [JPC-3]; first compound 0.000632 µM): 1.07
- relative viability (PC-3 [JPC-3]; first compound 0.002 µM): 0.781
- relative viability (PC-3 [JPC-3]; first compound 0.006325 µM): 0.279
- relative viability (PC-3 [JPC-3]; first compound 0.02 µM): 0.167
- relative viability (NCI-H358; first compound 0.0002 µM): 0.786
- relative viability (NCI-H358; first compound 0.000632 µM): 0.361
- relative viability (NCI-H358; first compound 0.002 µM): 0.267
- relative viability (NCI-H358; first compound 0.02 µM): 0.111
- relative viability (NCI-H596; first compound 0.0002 µM): 0.616
- relative viability (NCI-H596; first compound 0.000632 µM): 0.516
- relative viability (NCI-H596; first compound 0.002 µM): 0.553
- relative viability (NCI-H596; first compound 0.006325 µM): 0.457
- relative viability (NCI-H596; first compound 0.02 µM): 0.336
- relative viability (NCI-H1944; first compound 0.0002 µM): 0.751
- relative viability (NCI-H1944; first compound 0.000632 µM): 0.761
- relative viability (NCI-H1944; first compound 0.002 µM): 0.728
- relative viability (NCI-H1944; first compound 0.006325 µM): 0.259
- relative viability (NCI-H1944; first compound 0.02 µM): 0.122
- relative viability (NCI-H650; first compound 0.0002 µM): 1.02
- relative viability (NCI-H650; first compound 0.000632 µM): 0.518
- relative viability (NCI-H650; first compound 0.002 µM): 0.315
- relative viability (NCI-H650; first compound 0.006325 µM): 0.304
- relative viability (NCI-H650; first compound 0.02 µM): 0.212
- relative viability (LXF-289; first compound 0.0002 µM): 1.09
- relative viability (LXF-289; first compound 0.000632 µM): 0.577
- relative viability (LXF-289; first compound 0.002 µM): 0.59
- relative viability (LXF-289; first compound 0.006325 µM): 0.119
- relative viability (LXF-289; first compound 0.02 µM): 0.0912
- relative viability (NCI-H838; first compound 0.0002 µM): 0.978
- relative viability (NCI-H838; first compound 0.000632 µM): 0.974
- relative viability (NCI-H838; first compound 0.002 µM): 0.286
- relative viability (NCI-H838; first compound 0.006325 µM): 0.194
- relative viability (NCI-H838; first compound 0.02 µM): 0.157
- relative viability (NCI-H661; first compound 0.0002 µM): 0.468
- relative viability (NCI-H661; first compound 0.000632 µM): 0.582
- relative viability (NCI-H661; first compound 0.002 µM): 0.411
- relative viability (NCI-H661; first compound 0.006325 µM): 0.344
- relative viability (NCI-H661; first compound 0.02 µM): 0.176
- relative viability (NCI-H1651; first compound 0.0002 µM): 0.811
- relative viability (NCI-H1651; first compound 0.000632 µM): 0.944
- relative viability (NCI-H1651; first compound 0.002 µM): 0.248
- relative viability (NCI-H1651; first compound 0.006325 µM): 0.108
- relative viability (NCI-H1651; first compound 0.02 µM): 0.111
- relative viability (NCI-H1975; first compound 0.0002 µM): 0.617
- relative viability (NCI-H1975; first compound 0.000632 µM): 0.437
- relative viability (NCI-H1975; first compound 0.006325 µM): 0.156
- relative viability (NCI-H1975; first compound 0.02 µM): 0.122
- relative viability (NCI-H1666; first compound 0.0002 µM): 0.803
- relative viability (NCI-H1666; first compound 0.000632 µM): 0.406
- relative viability (NCI-H1666; first compound 0.002 µM): 0.352
- relative viability (NCI-H1666; first compound 0.006325 µM): 0.276
- relative viability (NCI-H1666; first compound 0.02 µM): 0.168
- relative viability (NCI-H2087; first compound 0.0002 µM): 0.916
- relative viability (NCI-H2087; first compound 0.000632 µM): 0.753
- relative viability (NCI-H2087; first compound 0.002 µM): 0.253
- relative viability (NCI-H2087; first compound 0.006325 µM): 0.193
- relative viability (NCI-H2087; first compound 0.02 µM): 0.15
- relative viability (LU99A; first compound 0.0002 µM): 0.499
- relative viability (LU99A; first compound 0.000632 µM): 0.342
- relative viability (LU99A; first compound 0.002 µM): 0.299
- relative viability (LU99A; first compound 0.006325 µM): 0.184
- relative viability (LU99A; first compound 0.02 µM): 0.139
- relative viability (LC-2-ad; first compound 0.0002 µM): 0.538
- relative viability (LC-2-ad; first compound 0.000632 µM): 0.174
- relative viability (LC-2-ad; first compound 0.002 µM): 0.166
- relative viability (LC-2-ad; first compound 0.006325 µM): 0.11
- relative viability (LC-2-ad; first compound 0.02 µM): 0.0967
- relative viability (SK-MES-1; first compound 0.0002 µM): 0.932
- relative viability (SK-MES-1; first compound 0.000632 µM): 0.892
- relative viability (SK-MES-1; first compound 0.002 µM): 0.484
- relative viability (SK-MES-1; first compound 0.006325 µM): 0.224
- relative viability (SK-MES-1; first compound 0.02 µM): 0.104
- relative viability (NCI-H1355; first compound 0.0002 µM): 0.726
- relative viability (NCI-H1355; first compound 0.000632 µM): 0.768
- relative viability (NCI-H1355; first compound 0.002 µM): 0.435
- relative viability (NCI-H1355; first compound 0.006325 µM): 0.313
- relative viability (NCI-H1355; first compound 0.02 µM): 0.189
- relative viability (LCLC-97TM1; first compound 0.000632 µM): 0.222
- relative viability (LCLC-97TM1; first compound 0.002 µM): 0.121
- relative viability (LCLC-97TM1; first compound 0.006325 µM): 0.154
- relative viability (LCLC-97TM1; first compound 0.02 µM): 0.0979
